The numbers were not newly measured in US11185497B2, “Intranasal delivery of dihydroergotamine by precision olfactory device” (Impel Neuropharma, Inc., priority 2018, dated 2021), which cites them from elsewhere.

Molecules are shown by their SMILES.

For this data set the following is noted: in vivo.

In the case of `CN1C[C@H](C(=O)N[C@]2(C)O[C@@]3(O)[C@@H]4CCCN4C(=O)[C@H](Cc4ccccc4)N3C2=O)C[C@@H]2c3cccc4[nH]cc(c34)C[C@H]21` [DHE, Dihydroergotamine], the oral bioavailability entry was “poor”.
